In PubChem BioAssay AID200 (DTP/NCI, 2004):
Values joined by “and” are separate entries in the source; they are usually repeats but may differ in a detail not shown here. Equal entries are not always repeated. Toxic doses and inconclusive results are not listed.

Tested on: B6C3F1 mice, B16 melanoma ip, median survival T/C
Assay: NCI In Vivo Anticancer Drug Screen. Data for tumor model B16 Melanoma (intraperitoneal) in B6C3F1 mice
Conditions: endpoint: median survival time, schedule: Q01DX009 (ip), higher = longer survival
Outline: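 Antitumor effect was judged in mice with transplanted tumors by dividing the treated group's survival measure by that of vehicle controls.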

[1] = dose: 50.0 mg/kg/injection, vehicle: Klucel (hydroxypropylcellulose) (HPC)
[2] = dose: 100.0 mg/kg/injection, vehicle: Klucel (hydroxypropylcellulose) (HPC)
[3] = dose: 200.0 mg/kg/injection, vehicle: Klucel (hydroxypropylcellulose) (HPC)
[4] = dose: 400.0 mg/kg/injection, vehicle: Klucel (hydroxypropylcellulose) (HPC)
[5] = dose: 6.25 mg/kg/injection, vehicle: saline with Tween-80
[6] = dose: 12.5 mg/kg/injection, vehicle: saline with Tween-80
[7] = dose: 25.0 mg/kg/injection, vehicle: saline with Tween-80
[8] = dose: 50.0 mg/kg/injection, vehicle: saline with Tween-80
[9] = dose: 100.0 mg/kg/injection, vehicle: saline with Tween-80
[10] = dose: 200.0 mg/kg/injection, vehicle: saline with Tween-80

## COc1cc(C)c(C2NC(=O)c3ccccc3N2)cc1C (stereo not drawn)
[1]
  T/C: 111 % of control and 120 % of control
[2]
  T/C: 115 % of control and 105 % of control
[3]
  T/C: 111 % of control
[4]
  T/C: 112 % of control
dose: 800.0 mg/kg/injection, vehicle: Klucel (hydroxypropylcellulose) (HPC)
  T/C: 107 % of control

## N#Cc1c(N)[nH]c2ccc(Sc3ccccc3)cc12
[5]
  T/C: 110 % of control
[6]
  T/C: 94 % of control
[7]
  T/C: 99 % of control
[8]
  T/C: 107 % of control

## O=S(O)O
dose: 50.0 mg/kg/injection, vehicle: saline
  T/C: 107 % of control
dose: 100.0 mg/kg/injection, vehicle: saline
  T/C: 115 % of control
dose: 200.0 mg/kg/injection, vehicle: saline
  T/C: 98 % of control
dose: 400.0 mg/kg/injection, vehicle: saline
  T/C: 102 % of control

## Cc1ccc2c(c1)N=C(Nc1ccccc1)N=S2(C)=O (stereo not drawn)
[5]
  T/C: 101 % of control
[6]
  T/C: 87 % of control
[7]
  T/C: 102 % of control
[8]
  T/C: 96 % of control
[9]
  T/C: 87 % of control
[10]
  T/C: 90 % of control

## C[C@]12CC[C@@H]3c4ccc(OC(=O)Cc5ccc(N(CCCl)CCCl)cc5)cc4CC[C@H]3[C@@H]1CC[C@@H]2OC(=O)Cc1ccc(N(CCCl)CCCl)cc1
dose: 12.5 mg/kg/injection, vehicle: Klucel (hydroxypropylcellulose) (HPC)
  T/C: 104 % of control
dose: 25.0 mg/kg/injection, vehicle: Klucel (hydroxypropylcellulose) (HPC)
  T/C: 92 % of control and 103 % of control
[1]
  T/C: 121 % of control and 103 % of control
[2]
  T/C: 90 % of control and 93 % of control
[3]
  T/C: 104 % of control
[4]
  T/C: 92 % of control and 103 % of control

## CC[C@@]1(O)C(=O)OCc2c1cc1n(c2=O)Cc2cc3cc(O)ccc3nc2-1
dose: 0.37 mg/kg/injection, vehicle: suspension in saline
  T/C: 155 % of control
dose: 0.38 mg/kg/injection, vehicle: other
  T/C: 160 % of control
dose: 0.75 mg/kg/injection, vehicle: other
  T/C: 191 % of control
dose: 0.75 mg/kg/injection, vehicle: suspension in saline
  T/C: 183 % of control
dose: 1.5 mg/kg/injection, vehicle: other
  T/C: 197 % of control
dose: 1.5 mg/kg/injection, vehicle: suspension in saline
  T/C: 201 % of control
dose: 3.0 mg/kg/injection, vehicle: suspension in saline
  T/C: 201 % of control

## CC(=O)NC(Cc1ccc(F)cc1)C(=O)O (stereo not drawn)
[7]
  T/C: 123 % of control
[8]
  T/C: 121 % of control
[9]
  T/C: 121 % of control
[10]
  T/C: 110 % of control
dose: 400.0 mg/kg/injection, vehicle: saline with Tween-80
  T/C: 111 % of control
dose: 800.0 mg/kg/injection, vehicle: saline with Tween-80
  T/C: 121 % of control

## CSC1SCC2C(=O)N(C)C(C(C)C)C(=O)OCC(NC(=O)c3cnc4ccccc4n3)C(=O)NC(C)C(=O)N(C)C1C(=O)N(C)C(C(C)C)C(=O)OCC(NC(=O)c1cnc3ccccc3n1)C(=O)NC(C)C(=O)N2C (stereo not drawn)
dose: 15.0 micrograms/kg/injection, vehicle: saline with Tween-80
  T/C: 106 % of control
dose: 30.0 micrograms/kg/injection, vehicle: saline
  T/C: 176 % of control
dose: 32.0 micrograms/kg/injection, vehicle: saline
  T/C: 176 % of control
dose: 60.0 micrograms/kg/injection, vehicle: saline with Tween-80
  T/C: 121 % of control
dose: 60.0 micrograms/kg/injection, vehicle: saline
  T/C: 172 % of control
dose: 64.0 micrograms/kg/injection, vehicle: saline
  T/C: 176 % of control
dose: 120.0 micrograms/kg/injection, vehicle: saline
  T/C: 209 % of control
dose: 128.0 micrograms/kg/injection, vehicle: saline
  T/C: 187 % of control
dose: 240.0 micrograms/kg/injection, vehicle: saline
  T/C: 181 % of control
dose: 480.0 micrograms/kg/injection, vehicle: saline with Tween-80
  T/C: 170 % of control
